Test results as given in ChEMBL document CHEMBL1151484, “Preparation and anti-HIV activity of N-3 amino substituted thymidine nucleoside analogs” (Bioorg Med Chem Lett, 1992).

Assays:
CCRF-CEM [1] = assay: In vitro anti -HIV activity of compound determined against the LAV Bru infected CEM cells; Highly cytotoxic at low dose; type: functional, Homo sapiens
[2] = Tested for bone marrow cell toxicity expressed as burst forming unit for erythrocyte at a compound concentration of 36/30 mM in experiment-1; type: cell-based; conditions: human
[3] = Tested for bone marrow cell toxicity expressed as burst forming unit for erythrocyte at a compound concentration of 36/30 mM in experiment-2; type: cell-based; conditions: human
[4] = Tested for bone marrow cell toxicity expressed as burst forming unit for erythrocyte at a compound concentration of 360 mM in experiment-1; type: cell-based; conditions: human
[5] = Tested for bone marrow cell toxicity expressed as burst forming unit for erythrocyte at a compound concentration of 0.036 mM in experiment-1; type: cell-based; conditions: human, 36 µM
[6] = Tested for bone marrow cell toxicity expressed as burst forming unit for erythrocyte at a compound concentration of 0.036 mM in experiment-2; type: cell-based; conditions: human, 36 µM
[7] = Tested for bone marrow cell toxicity expressed as burst forming unit for erythrocyte at a compound concentration of 0.36 mM in experiment-1; type: cell-based; conditions: human, 360 µM
[8] = Tested for bone marrow cell toxicity expressed as burst forming unit for erythrocyte at a compound concentration of 100 mM in experiment-2; type: cell-based; conditions: human
[9] = Tested for bone marrow cell toxicity expressed as burst forming unit for erythrocyte at a compound concentration of 10 mM in experiment-2; type: cell-based; conditions: human
[10] = Tested for bone marrow cell toxicity expressed as colony forming unit of granulocyte -macrophage at a compound concentration of 0.036 mM in experiment-1; type: cell-based; conditions: human, 36 µM
[11] = Tested for bone marrow cell toxicity expressed as colony forming unit of granulocyte -macrophage at a compound concentration of 0.36 mM in experiment-1; type: cell-based; conditions: human, 360 µM
[12] = Tested for bone marrow cell toxicity expressed as burst forming unit for erythrocyte at a compound concentration of 1 mM in experiment-2; type: cell-based; conditions: human, 1000 µM
[13] = Tested for bone marrow cell toxicity expressed as burst forming unit for erythrocyte at a compound concentration of 3.6/3 mM in experiment-1; type: cell-based; conditions: human
[14] = Tested for bone marrow cell toxicity expressed as burst forming unit for erythrocyte at a compound concentration of 3.6/3 mM in experiment-2; type: cell-based; conditions: human
[15] = Tested for bone marrow cell toxicity expressed as colony forming unit of granulocyte -macrophage at a compound concentration of 100 mM in experiment-2; type: cell-based; conditions: human
[16] = Tested for bone marrow cell toxicity expressed as colony forming unit of granulocyte -macrophage at a compound concentration of 10 mM in experiment-2; type: cell-based; conditions: human
[17] = Tested for bone marrow cell toxicity expressed as colony forming unit of granulocyte -macrophage at a compound concentration of 1 mM in experiment-2; type: cell-based; conditions: human, 1000 µM
[18] = Tested for bone marrow cell toxicity expressed as colony forming unit of granulocyte -macrophage at a compound concentration of 3.6/30 mM in experiment-1; type: cell-based; conditions: human
[19] = Tested for bone marrow cell toxicity expressed as colony forming unit of granulocyte -macrophage at a compound concentration of 3.6/30 mM in experiment-2; type: cell-based; conditions: human
[20] = Tested for bone marrow cell toxicity expressed as colony forming unit of granulocyte -macrophage at a compound concentration of 300 mM in experiment-1; type: cell-based; conditions: human
[21] = Tested for bone marrow cell toxicity expressed as colony forming unit of granulocyte -macrophage at a compound concentration of 36/30 mM in experiment-1; type: cell-based; conditions: human
[22] = Tested for bone marrow cell toxicity expressed as colony forming unit of granulocyte -macrophage at a compound concentration of 36/30 mM in experiment-2; type: cell-based; conditions: human
[23] = Tested for bone marrow cell toxicity expressed as colony forming unit of granulocyte -macrophage at a compound concentration of 360 mM in experiment-1; type: cell-based; conditions: human
Mus musculus [24] = assay: Effect of compound on Friend Complex Murine Leukemia Virus (F-MuLV) induced splenomegaly, expressed as percent inhibition at a dose of 12 mg/kg; type: functional
Mus musculus [25] = assay: Effect of compound on Friend Complex Murine Leukemia Virus (F-MuLV) induced splenomegaly, expressed as percent inhibition at a dose of 40 mg/kg; type: functional
Mus musculus [26] = assay: Effect of compound on Friend Complex Murine Leukemia Virus (F-MuLV) induced splenomegaly, expressed as percent inhibition at a dose of 4 mg/kg; type: functional
Mus musculus [27] = assay: Effect of compound on Friend Complex Murine Leukemia Virus (F-MuLV) induced splenomegaly, spleen weights at a dose of 12 mg/kg; type: functional
Mus musculus [28] = assay: Effect of compound on Friend Complex Murine Leukemia Virus (F-MuLV) induced splenomegaly, spleen weights at a dose of 40 mg/kg; type: functional
Mus musculus [29] = assay: Effect of compound on Friend Complex Murine Leukemia Virus (F-MuLV) induced splenomegaly, spleen weights at a dose of 4 mg/kg; type: functional
CCRF-CEM [30] = assay: In vitro anti -HIV activity of compound determined against the LAV Bru strain infected CEM cells at dose up to 100 uM; type: functional, Homo sapiens
[31] = Tested for bone marrow cell toxicity expressed as burst forming unit for erythrocyte at a compound concentration of 30 mM in experiment-1; type: cell-based; conditions: human
[32] = Tested for bone marrow cell toxicity expressed as burst forming unit for erythrocyte at a compound concentration of 30 mM in experiment-2; type: cell-based; conditions: human
[33] = Tested for bone marrow cell toxicity expressed as burst forming unit for erythrocyte at a compound concentration of 3 mM in experiment-1; type: cell-based; conditions: human, 3000 µM
[34] = Tested for bone marrow cell toxicity expressed as burst forming unit for erythrocyte at a compound concentration of 3 mM in experiment-2; type: cell-based; conditions: human, 3000 µM
[35] = Tested for bone marrow cell toxicity expressed as burst forming unit for erythrocyte at a compound concentration of 0.3 mM in experiment-2; type: cell-based; conditions: human, 300 µM
[36] = Tested for bone marrow cell toxicity expressed as burst forming unit for erythrocyte at a compound concentration of 100 mM in experiment-1; type: cell-based; conditions: human
[37] = Tested for bone marrow cell toxicity expressed as burst forming unit for erythrocyte at a compound concentration of 10 mM in experiment-1; type: cell-based; conditions: human
[38] = Tested for bone marrow cell toxicity expressed as burst forming unit for erythrocyte at a compound concentration of 1 mM in experiment-1; type: cell-based; conditions: human, 1000 µM
[39] = Tested for bone marrow cell toxicity expressed as colony forming unit of granulocyte -macrophage at a compound concentration of 0.3 mM in experiment-2; type: cell-based; conditions: human, 300 µM
[40] = Tested for bone marrow cell toxicity expressed as colony forming unit of granulocyte -macrophage at a compound concentration of 100 mM in experiment-1; type: cell-based; conditions: human
[41] = Tested for bone marrow cell toxicity expressed as colony forming unit of granulocyte -macrophage at a compound concentration of 10 mM in experiment-1; type: cell-based; conditions: human
[42] = Tested for bone marrow cell toxicity expressed as colony forming unit of granulocyte -macrophage at a compound concentration of 1 mM in experiment-1; type: cell-based; conditions: human, 1000 µM
[43] = Tested for bone marrow cell toxicity expressed as colony forming unit of granulocyte -macrophage at a compound concentration of 30 mM in experiment-2; type: cell-based; conditions: human
[44] = Tested for bone marrow cell toxicity expressed as colony forming unit of granulocyte -macrophage at a compound concentration of 3 mM in experiment-1; type: cell-based; conditions: human, 3000 µM
[45] = Tested for bone marrow cell toxicity expressed as colony forming unit of granulocyte -macrophage at a compound concentration of 3 mM in experiment-2; type: cell-based; conditions: human, 3000 µM

Question: Which Activity (CCRF-CEM [1]) does the source give for `Cc1cn(C2CC(F)C(CO)O2)c(=O)n(N)c1=O` (stereo unspecified) here?
Answer: 0.1 µM

Question: Which Activity (CCRF-CEM [1]) does the source give for `Cc1cn([C@H]2C[C@H](F)[C@@H](CO)O2)c(=O)[nH]c1=O` [ALOVUDINE] here?
Answer: 0.1 µM

Question: For `Cc1cn(C2CC(N=[N+]=[N-])C(CO)O2)c(=O)n(N)c1=O` (stereo unspecified), which BFU [2] is on record?
Answer: 98

Question: And the BFU [3]?
Answer: 198

Question: And the BFU [4]?
Answer: 111

Question: What about the BFU [5] of the same compound?
Answer: 94

Question: And the BFU [6]?
Answer: 10

Question: And the BFU [7]?
Answer: 142

Question: What about the BFU [8] of the same compound?
Answer: 158

Question: And the BFU [9]?
Answer: 170

Question: What about the CFU [10] of the same compound?
Answer: 48.3

Question: What about the CFU [11] of the same compound?
Answer: 31.3

Question: And the BFU [12]?
Answer: 249

Question: And the BFU [13]?
Answer: 140

Question: And the BFU [14]?
Answer: 218

Question: What about the CFU [15] of the same compound?
Answer: 9.3

Question: And the CFU [16]?
Answer: 10

Question: What about the CFU [17] of the same compound?
Answer: 12.3

Question: What about the CFU [18] of the same compound?
Answer: 31.3

Question: And the CFU [19]?
Answer: 14

Question: And the CFU [20]?
Answer: 0.3

Question: And the CFU [21]?
Answer: 28.3

Question: What about the CFU [22] of the same compound?
Answer: 11.3

Question: What about the CFU [23] of the same compound?
Answer: 0.7

Question: And the inhibition in vivo at 12 mg/kg (Mus musculus [24])?
Answer: 46%

Question: What about the inhibition in vivo at 40 mg/kg (Mus musculus [25]) of the same compound?
Answer: 55%

Question: What about the inhibition in vivo at 4 mg/kg (Mus musculus [26]) of the same compound?
Answer: 28%

Question: And the Spleen weight (Mus musculus [27])?
Answer: 715 mg

Question: And the Spleen weight (Mus musculus [28])?
Answer: 607 mg

Question: And the Spleen weight (Mus musculus [29])?
Answer: 907 mg

Question: For `Cc1cn(C2C=CC(CO)O2)c(=O)n(N)c1=O` (stereo unspecified), which Activity (CCRF-CEM [30]) is on record?
Answer: 40 µM

Question: For `Cc1cn([C@H]2C[C@H](N=[N+]=[N-])[C@@H](CO)O2)c(=O)[nH]c1=O` [ZIDOVUDINE], which BFU [31] is on record?
Answer: 46

Question: What about the BFU [32] of the same compound?
Answer: 59

Question: What about the BFU [33] of the same compound?
Answer: 88

Question: What about the BFU [34] of the same compound?
Answer: 79

Question: And the BFU [35]?
Answer: 143

Question: What about the BFU [36] of the same compound?
Answer: 4

Question: What about the BFU [37] of the same compound?
Answer: 76

Question: And the BFU [9]?
Answer: 79

Question: What about the BFU [38] of the same compound?
Answer: 120

Question: And the BFU [12]?
Answer: 132

Question: What about the CFU [39] of the same compound?
Answer: 10.7

Question: And the CFU [40]?
Answer: 1

Question: And the CFU [41]?
Answer: 4.3

Question: What about the CFU [16] of the same compound?
Answer: 1

Question: And the CFU [42]?
Answer: 33.4

Question: And the CFU [17]?
Answer: 4.7

Question: What about the CFU [43] of the same compound?
Answer: 0

Question: What about the CFU [44] of the same compound?
Answer: 18.7

Question: And the CFU [45]?
Answer: 4.5

Question: What about the inhibition in vivo at 12 mg/kg (Mus musculus [24]) of the same compound?
Answer: 50%

Question: And the inhibition in vivo at 40 mg/kg (Mus musculus [25])?
Answer: 78%

Question: And the inhibition in vivo at 4 mg/kg (Mus musculus [26])?
Answer: 46%

Question: What about the Spleen weight (Mus musculus [27]) of the same compound?
Answer: 669 mg

Question: What about the Spleen weight (Mus musculus [28]) of the same compound?
Answer: 357 mg

Question: What about the Spleen weight (Mus musculus [29]) of the same compound?
Answer: 706 mg
